Results published in patent US20240139188A1, “Arylamide Compounds For Treatment And Prevention Of Fungal Infections” (priority 2022, published 2024).
≈ marks a conversion by molar mass, not a printed value. Like-named read-outs stand apart in the source and are kept apart here.

Legend:
[1] = test system: Aspergillus fumigatus; experiment: In vitro susceptibility (MIC), macrobroth dilution; format: cell-based; settings: for MIC50 / MIC: Aspergillus fumigatus
[2] = test system: Candida albicans; experiment: In vitro susceptibility (MIC), macrobroth dilution; format: cell-based; settings: Candida albicans, C. albicans 5, drug alone
[3] = test system: Cryptococcus neoformans; experiment: In vitro susceptibility (MIC), macrobroth dilution; format: cell-based; settings: Cryptococcus neoformans, C. neoformans CN9759, drug alone
[4] = test system: Candida lusitaniae; experiment: In vitro susceptibility (MIC), macrobroth dilution; format: cell-based; settings: Clavispora lusitaniae, Candida lusitaniae 22-16
[5] = test system: Aspergillus niger; experiment: In vitro susceptibility (MIC), macrobroth dilution; format: cell-based; settings: Aspergillus niger 22-4
[6] = test system: Candida krusei; experiment: In vitro susceptibility (MIC), macrobroth dilution; format: cell-based; settings: Pichia kudriavzevii, Candida krusei 03-287 (fluconazole-resistant)
[7] = test system: Torulopsis glabrata; experiment: In vitro susceptibility (MIC), macrobroth dilution; format: cell-based; settings: Nakaseomyces glabratus, Torulopsis glabrata 22-21
[8] = test system: Aspergillus terreus; experiment: In vitro susceptibility (MIC), macrobroth dilution; format: cell-based; settings: Aspergillus terreus 12-70
[9] = test system: Mucorales Mucor species; experiment: In vitro susceptibility (MIC), macrobroth dilution; format: cell-based; settings: Mucor
[10] = test system: critical fungal pathogens; experiment: Checkerboard drug interaction testing (FICi), BRI with conventional antifungals; format: cell-based; settings: organisms tested, with the exception of Aspergillus
[11] = test system: Exserohilum species; experiment: In vitro susceptibility (MIC), macrobroth dilution; format: cell-based; settings: Exserohilum species 19-48
[12] = test system: A. fumigatus; experiment: Alamar blue metabolic activity assay; format: cell-based, Aspergillus fumigatus; settings: ΔmpkA mutant, BRI 20 μM, 48 hours
[13] = test system: Mucorales Unspeciated zygomycete; experiment: In vitro susceptibility (MIC), macrobroth dilution; format: cell-based; settings: Mucorales Unspeciated zygomycete 07-140
[14] = test system: Aspergillus lentulus; experiment: In vitro susceptibility (MIC), macrobroth dilution; format: cell-based; settings: Aspergillus lentulus 14-39
[15] = test system: Candida auris; experiment: In vitro susceptibility (MIC), macrobroth dilution; format: cell-based; settings: Candidozyma auris, Candida auris 20-253
[16] = test system: C. auris; experiment: BRI+CAS against yeasts, colony forming units; settings: plating after 48 hours
Method: (§1) Combination of Brilacidin and caspofungin against yeasts: For measuring the effect of the combination BRI+CAS against yeast fungal pathogens, two methods were used: (i) metabolic activity by XTT-assay and (ii) colony forming units (CFUs). For the first method, C. neoformans, C. albicans, and C. auris 10^4 cells were inoculated in RPMI-1640 supplemented with CAS 0 to 32 μg/ml (for C. neoformans) and 0 to 1 μg/ml (for Candida spp.) or the same concentrations of CAS combined with BRI 0.625 μM (for C. neoformans), BRI 20 μM (for C. albicans), and BRI 10 μM (for C. auris). […] XTT-assays were also used for C. albicans caspofungin resistant strains but with CAS 0.5 μg/ml combined with BRI 5, 10 or 20 μM. The same experimental design was used for the CFUs determination, except that after 48 hours the cells present in the wells were plated on YPD (yeast extract 10g, peptone 20g, dextrose 20g, agar 20 g, water 1000 mL) and the plates were incubated at 30° C. for 24-48 hours for determining the survival percentage.

[17] = test system: C. neoformans; experiment: BRI+CAS against yeasts, colony forming units
Method: as §1

[18] = test system: Acremonium species; experiment: In vitro susceptibility (MIC), macrobroth dilution; format: cell-based; settings: Acremonium species 18-51
[19] = test system: Lomentospora prolificans; experiment: In vitro susceptibility (MIC), macrobroth dilution; format: cell-based
[20] = test system: C. albicans; experiment: BRI+CAS against yeasts, colony forming units; settings: plating after 48 hours
Method: as §1

[21] = test system: C. neoformans; experiment: BRI+CAS against yeasts, XTT metabolic activity; settings: CAS alone, 48 hours
[22] = test system: A. fumigatus conidia infecting A549 pulmonary cells; experiment: Killing assay in infected A549 cells; format: cell-based, Aspergillus fumigatus; settings: monotherapy
Method: Killing assay: The type II pneumocyte cell line A549 was cultured using DMEM (ThermoFischer Scientific, Paisley. […] After 24 hours of incubation in 5% CO2 the culture media was removed, and 2 ml of sterile water was added to the wells. A P1000 tip was then used to scrape away the cell monolayer and the cell suspension was collected. This suspension was then diluted 1:1000 and 100 μl was plated on Sabouraud Dextrose Agar Media before the plates were incubated a 37° C. overnight. The numbers of CFUs were determined after 24 hours of growth. A volume of 50 μl of the inoculum adjusted to 103/ml was also plated on SAB agar to correct CFU counts. The CFU percentage for each sample was calculated and the results were plotted using Graphpad Prism (GraphPad Software, Inc., La Jolla, CA, USA).

[23] = test system: C. albicans; experiment: BRI+CAS against yeasts, XTT metabolic activity; settings: absence of BRI
[24] = read-out: 50% Inhibition BRI (MIC50)
[25] = read-out: 100% Inhibition BRI (MIC100)
[26] = lowest concentration causing 50% decrease in growth vs untreated control, read-out: MIC50
[27] = lowest concentration without growth, read-out: MIC100

## N=C(N)NCCCCC(=O)Nc1cc(C(F)(F)F)cc(NC(=O)c2cc(C(=O)Nc3cc(C(F)(F)F)cc(NC(=O)CCCCNC(=N)N)c3OC3CCNC3)ncn2)c1OC1CCNC1 (stereo not drawn) [BRI, brilacidin]
[1]; A. fumigatus 21-23, drug alone, lowest concentration without growth
  MIC100: >64 µg/mL
[1]; A. fumigatus 10AF, drug alone, lowest concentration causing 50% decrease in growth vs untreated control, read-out: MIC50
  MIC50: 64 µg/mL (≈ 68.3 µM)
[1]; A. fumigatus 21-23, drug alone, lowest concentration causing 50% decrease in growth vs untreated control, read-out: MIC50
  MIC50: 64 µg/mL (≈ 68.3 µM)
[1]; A. fumigatus 10AF, drug alone, lowest concentration without growth, read-out: MIC100
  MIC: > 64 µg/mL
[1]; [24]
  MIC50: > 64 µg/mL
[1]; [25]
  MIC: > 64 µg/mL
[2]; [26]
  MIC50: 4 µg/mL (≈ 4.27 µM)
[2]; [27]
  MIC: > 64 µg/mL
[3]; [26]
  MIC50: 1 µg/mL (≈ 1.07 µM)
[3]; [27]
  MIC: 8 µg/mL (≈ 8.54 µM)
[4]; [24]
  MIC50: 8 µg/mL (≈ 8.54 µM)
[4]; [25]
  MIC: 8 µg/mL (≈ 8.54 µM)
[5]; [24]
  MIC50: 8 µg/mL (≈ 8.54 µM)
[5]; [25]
  MIC: 16 µg/mL (≈ 17.1 µM)
[6]; [24]
  MIC50: 8 µg/mL (≈ 8.54 µM)
[6]; [25]
  MIC: 16 µg/mL (≈ 17.1 µM)
[7]; [24]
  MIC50: 64 µg/mL (≈ 68.3 µM)
[7]; [25]
  MIC: > 64 µg/mL
[8]; [24]
  MIC50: > 64 µg/mL
[8]; [25]
  MIC: > 64 µg/mL
[9]; Mucor sp. 13-127, drug alone, lowest concentration causing 50% decrease in growth vs untreated control, read-out: MIC50
  MIC50: 4 µg/mL (≈ 4.27 µM)
[9]; Mucor sp. 13-127, drug alone, lowest concentration without growth, read-out: MIC100
  MIC: 64 µg/mL (≈ 68.3 µM)
[9]; Mucorales Mucor species, read-out: 100% Inhibition BRI (MIC100)
  MIC: 32 µg/mL (≈ 34.2 µM)
[10]
  in vitro activity of BRI alone: favorable in vitro activity
[11]; [24]
  MIC50: 1 µg/mL (≈ 1.07 µM)
[11]; [25]
  MIC: 16 µg/mL (≈ 17.1 µM)
[12]
  metabolic activity (Alamar blue) in presence vs absence of BRI: significantly decreased metabolic activity
[13]; [24]
  MIC50: 2 µg/mL (≈ 2.13 µM)
[13]; [25]
  MIC: 16 µg/mL (≈ 17.1 µM)
[14]; [24]
  MIC50: 32 µg/mL (≈ 34.2 µM)
[14]; [25]
  MIC: > 64 µg/mL
[15]; [24]
  MIC50: > 64 µg/mL
[15]; [25]
  MIC: > 64 µg/mL
[16]; Candida auris 467/2015
  Mechanism: Fungicidal
[16]; Candida auris 468/2015
  Mechanism: Fungicidal
[16]; Candida auris 469/2015
  Mechanism: Fungicidal
[16]; Candida auris 470/2015
  Mechanism: Fungicidal
[16]; Candida auris 471/2015
  Mechanism: Fungicidal
[17]; BRI alone, C. neoformans
  type of activity: fungicidal
[17]; Cryptococcus neoformans H99, plating after 48 hours
  Mechanism: Fungicidal
[18]; [24]
  MIC50: 4 µg/mL (≈ 4.27 µM)
[18]; [25]
  MIC: > 64 µg/mL
[19]; [24]
  MIC50: 4 µg/mL (≈ 4.27 µM)
[19]; [25]
  MIC: 8 µg/mL (≈ 8.54 µM)
[20]; Candida albicans DPL1006 CAS^R
  Mechanism: Fungicidal
[20]; Candida albicans DPL1007 CAS^R
  Mechanism: Fungicidal
[20]; Candida albicans DPL1009 CAS^R
  Mechanism: Fungicidal
[20]; Candida albicans DPL1010 CAS^R
  Mechanism: Fungicidal
[20]; Candida albicans DPL1011 CAS^R
  Mechanism: Fungicidal
[20]; Candida albicans SC5314
  Mechanism: Fungicidal

## CC[C@H](C)C[C@H](C)CCCCCCCCC(=O)N[C@H]1C[C@@H](O)[C@@H](NCCN)NC(=O)[C@@H]2[C@@H](O)CCN2C(=O)[C@H]([C@H](O)CCN)NC(=O)[C@H]([C@H](O)[C@@H](O)c2ccc(O)cc2)NC(=O)[C@@H]2C[C@@H](O)CN2C(=O)[C@H]([C@@H](C)O)NC1=O [CAS, caspofungin]
[21]
  CAS concentration that completely inhibits metabolic activity (XTT): 32 µg/mL
[17]; CAS 16 μg/ml alone, 48 hours
  decrease of survival (CFUs): about 50%
[22]
  A. fumigatus killing: 25%
[23]
  CAS concentration for complete inhibition of metabolic activity (XTT) and survival (CFUs): ~0.125 µg/mL
